# Measured values from patent US20180024136A1, “Development of ABCG2-Sensitive Fluorescent Probe For Isolation of ABCG2low Neural Stem/Progenitor Cells” (National University of Singapore, priority 2015, published 2018).
# Assay: Spectroscopic properties of CF library (absorbance, emission, quantum yield, extinction coefficient)
# Assay type: physicochemical
# Conditions: 100 μM in ethanol; for QY (Φ): reference fluorescein
# Method: All the chemicals and solvents were purchased from Sigma Aldrich, Alfa Aesar, Fluka, MERCK, Tocris or Acros, and used without further purification. Normal phase purifications were carried out using Merck Silica Gel 60 (particle size: 0.040-0.063 mm, 230-400 mesh). Analytical characterization was performed on a HPLC-MS (Agilent-1200 series) with a DAD detector and a single quadrupole mass spectrometer (6130 series) with an ESI probe. ^1H-NMR and ^13C-NMR spectra were recorded on Bruker Avance 300 MHz NMR spectrometers, and chemical shifts are expressed in parts per million (ppm) and coupling constants are reported as a J value in Hertz (Hz). High resolution mass spectrometry (HRMS) data was recorded on a Micro mass VG 7035 (Mass Spectrometry Laboratory at National University of Singapore (NUS)). Spectroscopic and quantum yield data were measured on spectroscopic measurements, performed on a fluorometer and UV/VIS instrument, Synergy 4 of Bioteck Company. The slit width was 1 nm for both excitation and emission, and the data analysis was performed using GraphPrism 5.0.
SMILES,Abs (nm),Em (nm),QY (Φ)
CCCCCCNC(=O)c1ccc(-c2c3cc(Cl)c(=O)cc-3oc3cc(O)c(Cl)cc23)cc1 [CF-H4],520 nm,556 nm,0.63
CCN(Cc1ccccc1)C(=O)c1ccc(-c2c3cc(Cl)c(=O)cc-3oc3cc(O)c(Cl)cc23)cc1 [CF-D5],520 nm,555 nm,0.66
CCC(NC(=O)c1ccc(-c2c3cc(Cl)c(=O)cc-3oc3cc(O)c(Cl)cc23)cc1)c1ccccc1 (stereo not drawn) [CF-A3],520 nm,559 nm,0.40
CCCCCCN(C)C(=O)c1ccc(-c2c3cc(Cl)c(=O)cc-3oc3cc(O)c(Cl)cc23)cc1 [CF-F10],520 nm,559 nm,0.35
CCOCCCNC(=O)c1ccc(-c2c3cc(Cl)c(=O)cc-3oc3cc(O)c(Cl)cc23)cc1 [CF-E4],520 nm,558 nm,0.47
COCCNC(=O)c1ccc(-c2c3cc(Cl)c(=O)cc-3oc3cc(O)c(Cl)cc23)cc1 [CF-B3],520 nm,557 nm,0.32
C#CCNC(=O)c1ccc(-c2c3cc(Cl)c(=O)cc-3oc3cc(O)c(Cl)cc23)cc1 [CF-F11],520 nm,559 nm,0.21
CCCCCCCCCCCCN(C)C(=O)c1ccc(-c2c3cc(Cl)c(=O)cc-3oc3cc(O)c(Cl)cc23)cc1 [CF-G2],520 nm,553 nm,0.85
CC(Cc1ccccc1)NC(=O)c1ccc(-c2c3cc(Cl)c(=O)cc-3oc3cc(O)c(Cl)cc23)cc1 (stereo not drawn) [CF-A6],520 nm,557 nm,0.43
CCCCCN(CCCCC)C(=O)c1ccc(-c2c3cc(Cl)c(=O)cc-3oc3cc(O)c(Cl)cc23)cc1 [CF-G3],520 nm,552 nm,0.63
CC(C)CCNC(=O)c1ccc(-c2c3cc(Cl)c(=O)cc-3oc3cc(O)c(Cl)cc23)cc1 [CF-C8],520 nm,558 nm,0.68
CC(C)OCCCNC(=O)c1ccc(-c2c3cc(Cl)c(=O)cc-3oc3cc(O)c(Cl)cc23)cc1 [CF-F9],520 nm,557 nm,0.34
CCCC(C)NC(=O)c1ccc(-c2c3cc(Cl)c(=O)cc-3oc3cc(O)c(Cl)cc23)cc1 (stereo not drawn) [CF-G5],520 nm,557 nm,0.38
CCC(C)NC(=O)c1ccc(-c2c3cc(Cl)c(=O)cc-3oc3cc(O)c(Cl)cc23)cc1 (stereo not drawn) [CF-G8],520 nm,556 nm,0.29
O=C(CCCCc1ccccc1)c1ccc(-c2c3cc(Cl)c(=O)cc-3oc3cc(O)c(Cl)cc23)cc1 [CF-G4],520 nm,556 nm,0.40
O=C(NCCCCc1ccccc1)c1ccc(-c2c3cc(Cl)c(=O)cc-3oc3cc(O)c(Cl)cc23)cc1 [CF-D11],520 nm,558 nm,0.44
CCCNC(=O)c1ccc(-c2c3cc(Cl)c(=O)cc-3oc3cc(O)c(Cl)cc23)cc1 [CF-D9],520 nm,558 nm,0.25
CCOC(=O)N1CCC(NC(=O)c2ccc(-c3c4cc(Cl)c(=O)cc-4oc4cc(O)c(Cl)cc34)cc2)CC1 [CF-G6],520 nm,556 nm,0.29
COc1ccc(CCNC(=O)c2ccc(-c3c4cc(Cl)c(=O)cc-4oc4cc(O)c(Cl)cc34)cc2)cc1OC [CF-B10],520 nm,559 nm,0.56
O=C(NCc1c(Cl)cccc1Cl)c1ccc(-c2c3cc(Cl)c(=O)cc-3oc3cc(O)c(Cl)cc23)cc1 [CF-E2],520 nm,557 nm,0.63

# Other lines, results leading:
Abs (nm),Em (nm),QY (Φ),SMILES
520 nm,556 nm,0.70,O=C(c1ccc(-c2c3cc(Cl)c(=O)cc-3oc3cc(O)c(Cl)cc23)cc1)N1CCCC1 [CF-B7]
520 nm,556 nm,0.75,O=C(c1ccc(-c2c3cc(Cl)c(=O)cc-3oc3cc(O)c(Cl)cc23)cc1)N1CCc2ccccc2C1 [CF-A5]
520 nm,558 nm,0.53,O=C(NC1CC1)c1ccc(-c2c3cc(Cl)c(=O)cc-3oc3cc(O)c(Cl)cc23)cc1 [CF-B2]
520 nm,558 nm,0.63,COc1ccc(CCNC(=O)c2ccc(-c3c4cc(Cl)c(=O)cc-4oc4cc(O)c(Cl)cc34)cc2)cc1 [CF-C5]
520 nm,556 nm,0.90,CCCCN(CC)C(=O)c1ccc(-c2c3cc(Cl)c(=O)cc-3oc3cc(O)c(Cl)cc23)cc1 [CF-B4]
520 nm,556 nm,0.51,O=C(NCCc1ccccc1Cl)c1ccc(-c2c3cc(Cl)c(=O)cc-3oc3cc(O)c(Cl)cc23)cc1 [CF-H8]
520 nm,558 nm,0.77,CN(Cc1ccccc1)C(=O)c1ccc(-c2c3cc(Cl)c(=O)cc-3oc3cc(O)c(Cl)cc23)cc1 [CF-B6]
520 nm,558 nm,0.36,CCCN(CCC)C(=O)c1ccc(-c2c3cc(Cl)c(=O)cc-3oc3cc(O)c(Cl)cc23)cc1 [CF-A11]
520 nm,558 nm,0.54,Cc1ccc(CCNC(=O)c2ccc(-c3c4cc(Cl)c(=O)cc-4oc4cc(O)c(Cl)cc34)cc2)cc1 [CF-C10]
520 nm,558 nm,0.26,CCCCCCCCCCCCCNC(=O)c1ccc(-c2c3cc(Cl)c(=O)cc-3oc3cc(O)c(Cl)cc23)cc1 [CF-A4]
520 nm,558 nm,0.66,CCCCCCCNC(=O)c1ccc(-c2c3cc(Cl)c(=O)cc-3oc3cc(O)c(Cl)cc23)cc1 [CF-B11]
520 nm,558 nm,0.30,O=C(NCCc1ccccc1-c1ccccc1)c1ccc(-c2c3cc(Cl)c(=O)cc-3oc3cc(O)c(Cl)cc23)cc1 [CF-H9]
520 nm,557 nm,0.35,CCC(C)(C)NC(=O)c1ccc(-c2c3cc(Cl)c(=O)cc-3oc3cc(O)c(Cl)cc23)cc1 [CF-G11]
520 nm,558 nm,0.60,CCCCC(CC)CNC(=O)c1ccc(-c2c3cc(Cl)c(=O)cc-3oc3cc(O)c(Cl)cc23)cc1 (stereo not drawn) [CF-B9]
520 nm,556 nm,0.58,O=C(NC1CCCC1)c1ccc(-c2c3cc(Cl)c(=O)cc-3oc3cc(O)c(Cl)cc23)cc1 [CF-E5]
520 nm,555 nm,0.47,CC1CN(C(=O)c2ccc(-c3c4cc(Cl)c(=O)cc-4oc4cc(O)c(Cl)cc34)cc2)CC(C)O1 (stereo not drawn) [CF-D3]
520 nm,559 nm,0.78,CC(C)N(Cc1ccccc1)C(=O)c1ccc(-c2c3cc(Cl)c(=O)cc-3oc3cc(O)c(Cl)cc23)cc1 [CF-C2]
520 nm,558 nm,0.37,O=C(NCc1ccc(OC(F)(F)F)cc1)c1ccc(-c2c3cc(Cl)c(=O)cc-3oc3cc(O)c(Cl)cc23)cc1 [CF-A8]
520 nm,558 nm,0.63,CN(C(=O)c1ccc(-c2c3cc(Cl)c(=O)cc-3oc3cc(O)c(Cl)cc23)cc1)C1CCCCC1 [CF-A10]
520 nm,554 nm,0.66,CCCCN(CCCC)C(=O)c1ccc(-c2c3cc(Cl)c(=O)cc-3oc3cc(O)c(Cl)cc23)cc1 [CF-E3]
520 nm,557 nm,0.59,O=C(NCCc1ccccc1F)c1ccc(-c2c3cc(Cl)c(=O)cc-3oc3cc(O)c(Cl)cc23)cc1 [CF-H7]
520 nm,557 nm,0.67,CC1CCC(NC(=O)c2ccc(-c3c4cc(Cl)c(=O)cc-4oc4cc(O)c(Cl)cc34)cc2)CC1 (stereo not drawn) [CF-H5]
520 nm,558 nm,0.23,CCCCCNC(=O)c1ccc(-c2c3cc(Cl)c(=O)cc-3oc3cc(O)c(Cl)cc23)cc1 [CF-G10]
520 nm,556 nm,0.65,CC1CCCC(NC(=O)c2ccc(-c3c4cc(Cl)c(=O)cc-4oc4cc(O)c(Cl)cc34)cc2)C1C (stereo not drawn) [CF-H2]
520 nm,557 nm,0.46,COc1cccc(CCNC(=O)c2ccc(-c3c4cc(Cl)c(=O)cc-4oc4cc(O)c(Cl)cc34)cc2)c1OC [CF-E7]
520 nm,557 nm,0.27,O=C(NCC1CCCCC1)c1ccc(-c2c3cc(Cl)c(=O)cc-3oc3cc(O)c(Cl)cc23)cc1 [CF-G9]
520 nm,555 nm,0.54,Cc1cccc(CN(C)C(=O)c2ccc(-c3c4cc(Cl)c(=O)cc-4oc4cc(O)c(Cl)cc34)cc2)c1 [CF-D7]
520 nm,559 nm,0.55,COc1cccc(CNC(=O)c2ccc(-c3c4cc(Cl)c(=O)cc-4oc4cc(O)c(Cl)cc34)cc2)c1 [CF-C4]
